In patent publication US6509325B1, “Method for inhibiting melanogenesis and uses thereof” (priority 2000, dated 2003):

Legend:
[1] = tested on: melanization in C. neoformans; assay: Effect of sub-inhibitory glyphosate on melanization of C. neoformans cultures with L-dopa; assay type: cell-based, Cryptococcus neoformans; details: 1 mM L-dopa; for Melanization: control without glyphosate day 7
Description: Positive melanin controls were cultures containing L-dopa without glyphosate; negative controls were cultures lacking both L-dopa and glyphosate. All cultures were grown in duplicate. The cultures were examined visually for melanization. The growth rate of the cells in each culture was determined by counting, with a hemocytometer, the number of cells per ml at various times after the initiation of the culture.

[2] = tested on: autopolymerization of L-dopa to melanin; assay: Autopolymerization of L-dopa to melanin (spectrophotometry)
Description: In solution, L-dopa slowly autopolymerizes to form melanin [20]. […] The samples were left on the benchtop at room temperature. An Ultraspec 2000 spectrophotometer (Pharmacia Biotech, Cambridge, England) was used to assess absorption at 270λ after 3 days and 20 days. […] A freshly-prepared solution of the same concentrations was tested for comparison.

C. neoformans = assay: Lung CFUs in A/J Cr mice infected with C. neoformans; assay type: in vivo; details: 1 mg glyphosate i.p. at 24, 48, 72 h, 44 days after infection, n=13, controls 9.63±0.21, p=0.004
Description: (§1) Cryptococcus neoformans cells were collected as described above. BALB/c mice (National Cancer Institute (NCI), Bethesda, Md.), 6-8 weeks old, were injected intravenously (i.v.) by the tail veins with 1×10^6 organisms. […] In experiment A, uninfected control mice were injected with glyphosate at the same time intervals. […] Forty-four days after infection, the A/J Cr mice were killed, and the lungs were isolated and homogenized in 5 ml of PBS. 100 μl of 1/100 and 1/1000 dilutions of the homogenates in PBS were then plated on Sab agar. Colony-forming units (CFUs) were determined after incubation of the plates at 30° C. for 48 h (1 colony=1 CFU). […] Control mice were injected with PBS instead of glyphosate.

[3] = tested on: Cryptococcus neoformans serotype D strain 24067; assay: Glyphosate inhibition of C. neoformans growth (turbidity, 96-well plates); assay type: cell-based; details: after 72 h of incubation, 30° C., Sab, visual turbidity
Description: Cryptococcus neoformans serotype D strain 24067 was obtained from the American Type Culture Collection (Rockville, Md.), and grown overnight at 30° C. with shaking in Sabouraud dextrose media (Sab) obtained from Difco Laboratories (Detroit, Mich.). Cells were collected and washed three times with phosphate-buffered saline (PBS: 0.137 M NaCl and 0.003 M sodium phosphate; pH 7.4). A suspension of 250 organisms per 1 ml of Sab was made. Glyphosate was obtained from the Sigma Chemical Co. (St. Louis, Mo.). […] Each concentration was tested in triplicate. The plates were incubated at 30° C., and growth was assayed visually for turbidity after 72 h.

[4] = tested on: C. neoformans strain 24067; assay: Survival of BALB/c mice infected with C. neoformans; assay type: in vivo; details: for survival advantage: oral
Description: as §1
Data analysis was performed using SPSS version 8. Student's T-test and Kaplan-Meier survival analysis were utilized.

In the case of `O=C(O)CNCP(=O)(O)O` [glyphosate, N-phosphonomethylglycine], the “Melanization” value ([1]; 62.5 μg/ml glyphosate) is reported as 10 days, the “Melanization” value ([1]; 125 μg/ml glyphosate) is reported as 13 days and the “Melanization” value ([1]; 250 μg/ml glyphosate) is reported as 15 days. For the same molecule, the “melanization state of culture” value ([1]; grown 10 days in minimal media, 62.5 μg/ml glyphosate) was “heavily melanized”, the absorption value ([2]; 0.12 μg/ml glyphosate, 1 mM L-dopa, day 3, 270λ, control without compound 0.425) was 0.359 and the “concentration of glyphosate at which an absorption signal could be detected” value ([2]; day 3, 1 mM L-dopa, room temperature, 270λ) was 39 µg/mL. For the same molecule, the “concentrations of glyphosate that continued to inhibit melanin formation” value ([2]; day 20, 1 mM L-dopa, room temperature) was no less than 31.3 µg/mL, the “Log10 CFUs from lung homogenates” value (C. neoformans) was 8.62±1.12 and the “concentrations of glyphosate at which growth inhibition was observed” value [3] was greater than 250 µg/mL. The “concentrations of glyphosate at which no growth inhibition was observed” value [3] was less than 250 µg/mL, the Mean survival ([4]; 0.75 mg/day glyphosate i.p. protocol, control 20.4±1.31 days, p=0.049) was 26.8 ± 3.55 days and the “Mean survival time and standard deviation by Kaplan-Meier analysis” value ([4]; 1.5 mg/day glyphosate i.p. for three days, control 15.9±1.57 days, p=0.001) was 25.7 ± 2.36 days. For the same molecule, the survival advantage ([4]; ad lib water containing 2 mg/ml glyphosate) was “no survival advantage” and the survival advantage ([4]; ad lib water containing 10 mg/ml glyphosate) was “no survival advantage”.
